pEC50: −log10 of the molar value.
What was measured:
[1] = target: Testis-specific serine/threonine-protein kinase 1 (Homo sapiens) (UniProt Q9BXA7); assay: Inhibition of TSSK1 (unknown origin) at 1 uM
[2] = target: Serine/threonine-protein kinase 17A (Homo sapiens) (UniProt Q9UEE5); assay: Inhibition of DRAK1 (unknown origin) at 1 uM
[3] = Inhibition of anti-IgM-stimulated human B cell proliferation
[4] = target: Misshapen-like kinase 1 (Homo sapiens) (UniProt Q8N4C8); assay: Inhibition of Mink1 (unknown origin) at 1 uM
[5] = target: Tyrosine-protein kinase HCK (Homo sapiens) (UniProt P08631); assay: Inhibition of Hck (unknown origin) at 1 uM
[6] = target: Epidermal growth factor receptor (Homo sapiens) (UniProt P00533); assay: Inhibition of EGFR (unknown origin) at 1 uM
[7] = target: Inhibitor of nuclear factor kappa-B kinase subunit alpha (Homo sapiens) (UniProt O15111); assay: Inhibition of IKK alpha (unknown origin) at 1 uM
[8] = target: Casein kinase I isoform alpha (Homo sapiens) (UniProt P48729); assay: Inhibition of CK1 alpha1 (unknown origin) at 1 uM
[9] = target: Epithelial discoidin domain-containing receptor 1 (Homo sapiens) (UniProt Q08345); assay: Inhibition of DDR1 (unknown origin) at 1 uM
Chain of Epithelial discoidin domain-containing receptor 1 (Homo sapiens) (Q08345 whole entry, the tested form may be a part): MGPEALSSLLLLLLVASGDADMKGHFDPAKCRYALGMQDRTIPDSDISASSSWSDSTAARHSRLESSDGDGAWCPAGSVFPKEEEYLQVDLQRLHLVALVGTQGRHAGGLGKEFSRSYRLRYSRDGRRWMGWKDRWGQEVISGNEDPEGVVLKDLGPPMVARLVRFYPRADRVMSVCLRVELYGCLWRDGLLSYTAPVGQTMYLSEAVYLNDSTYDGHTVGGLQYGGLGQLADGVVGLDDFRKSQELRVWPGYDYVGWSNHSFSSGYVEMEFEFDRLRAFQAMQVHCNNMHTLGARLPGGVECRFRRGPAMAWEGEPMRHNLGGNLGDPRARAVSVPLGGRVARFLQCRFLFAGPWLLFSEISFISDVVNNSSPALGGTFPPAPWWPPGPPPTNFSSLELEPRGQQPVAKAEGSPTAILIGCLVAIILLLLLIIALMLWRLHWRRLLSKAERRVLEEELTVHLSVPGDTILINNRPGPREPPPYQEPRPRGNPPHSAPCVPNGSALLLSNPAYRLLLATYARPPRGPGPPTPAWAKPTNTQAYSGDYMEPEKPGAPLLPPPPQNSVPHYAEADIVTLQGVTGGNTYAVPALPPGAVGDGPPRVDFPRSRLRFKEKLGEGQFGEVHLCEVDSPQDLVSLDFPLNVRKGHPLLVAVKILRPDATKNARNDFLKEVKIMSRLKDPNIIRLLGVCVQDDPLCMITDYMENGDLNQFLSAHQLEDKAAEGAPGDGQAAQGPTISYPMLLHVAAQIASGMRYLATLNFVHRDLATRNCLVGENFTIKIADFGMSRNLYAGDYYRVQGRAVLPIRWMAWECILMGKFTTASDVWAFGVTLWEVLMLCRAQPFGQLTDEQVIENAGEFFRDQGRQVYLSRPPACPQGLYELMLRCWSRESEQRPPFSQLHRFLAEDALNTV

[10] = target: Ephrin type-A receptor 3 (Homo sapiens) (UniProt P29320); assay: Inhibition of EphA3 (unknown origin) at 1 uM
Rattus norvegicus = assay: Clearance in rat at 1 mg/kg, iv by LC-MS/MS analysis; format: ADME, organism-based; conditions: in vivo
[11] = target: Cyclin-dependent kinase 1/cyclin B1 (Homo sapiens) (UniProt P06493+P14635); assay: Inhibition of CDK1/cyclinB (unknown origin) at 1 uM; format: protein-complex assay
[12] = target: RAC-beta serine/threonine-protein kinase (Homo sapiens) (UniProt P31751); assay: Inhibition of AKT2 (unknown origin) at 1 uM
[13] = target: TGF-beta-activated kinase 1 and MAP3K7-binding protein 1 (Homo sapiens) (UniProt Q15750); assay: Inhibition of TAK1-TAB1 (unknown origin) at 1 uM
[14] = target: Protein kinase C delta type (Homo sapiens) (UniProt Q05655); assay: Inhibition of PKCdelta (unknown origin) at 1 uM
Chain of Protein kinase C delta type (Homo sapiens) (Q05655 whole entry, looked up): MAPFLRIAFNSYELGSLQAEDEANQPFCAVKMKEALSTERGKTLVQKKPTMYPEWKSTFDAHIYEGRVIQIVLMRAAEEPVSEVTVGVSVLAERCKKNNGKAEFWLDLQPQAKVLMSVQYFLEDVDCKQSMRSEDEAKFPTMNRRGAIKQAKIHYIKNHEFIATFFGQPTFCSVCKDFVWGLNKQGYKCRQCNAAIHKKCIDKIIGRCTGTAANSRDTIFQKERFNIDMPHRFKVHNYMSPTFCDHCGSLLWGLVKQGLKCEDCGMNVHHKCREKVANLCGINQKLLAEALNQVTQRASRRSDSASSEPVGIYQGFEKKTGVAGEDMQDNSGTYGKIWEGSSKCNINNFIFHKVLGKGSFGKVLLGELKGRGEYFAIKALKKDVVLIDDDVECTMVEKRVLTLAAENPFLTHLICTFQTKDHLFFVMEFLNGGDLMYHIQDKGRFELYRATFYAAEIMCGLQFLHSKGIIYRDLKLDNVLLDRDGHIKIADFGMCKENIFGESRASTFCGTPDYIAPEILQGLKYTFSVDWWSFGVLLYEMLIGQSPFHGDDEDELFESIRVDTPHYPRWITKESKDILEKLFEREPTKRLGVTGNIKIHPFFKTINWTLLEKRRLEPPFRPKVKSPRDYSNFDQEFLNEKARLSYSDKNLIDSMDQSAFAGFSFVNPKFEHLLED

[15] = target: Ribosomal protein S6 kinase alpha-3 (Homo sapiens) (UniProt P51812); assay: Inhibition of Rsk2 (unknown origin) at 1 uM
[16] = target: Death-associated protein kinase 3 (Homo sapiens) (UniProt O43293); assay: Inhibition of ZIPK (unknown origin) at 1 uM
Chain of Death-associated protein kinase 3 (Homo sapiens) (O43293 whole entry, looked up): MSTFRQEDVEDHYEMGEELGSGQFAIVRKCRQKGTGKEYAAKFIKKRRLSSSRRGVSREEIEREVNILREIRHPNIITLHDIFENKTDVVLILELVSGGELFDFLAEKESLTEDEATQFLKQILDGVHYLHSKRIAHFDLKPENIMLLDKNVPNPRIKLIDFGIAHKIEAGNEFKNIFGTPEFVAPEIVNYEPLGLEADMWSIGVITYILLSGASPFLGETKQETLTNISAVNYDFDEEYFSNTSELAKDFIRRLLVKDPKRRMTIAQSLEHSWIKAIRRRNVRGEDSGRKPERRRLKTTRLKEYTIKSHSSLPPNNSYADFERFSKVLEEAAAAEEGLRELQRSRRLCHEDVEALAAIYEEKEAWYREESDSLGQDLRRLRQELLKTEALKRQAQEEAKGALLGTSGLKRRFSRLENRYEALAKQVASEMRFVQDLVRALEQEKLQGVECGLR

[17] = target: MAP kinase-activated protein kinase 3 (Homo sapiens) (UniProt Q16644); assay: Inhibition of MAPKAPK3 (unknown origin) at 1 uM
[18] = target: G protein-coupled receptor kinase 3 (Homo sapiens) (UniProt P35626); assay: Inhibition of GRK3 (unknown origin) at 1 uM
[19] = Oral bioavailability in rat at 5 mg/kg by LC-MS/MS analysis; format: ADME, organism-based; conditions: in vivo
[20] = target: Mitogen-activated protein kinase kinase kinase kinase 4 (Homo sapiens) (UniProt O95819); assay: Inhibition of MAP4K4 (unknown origin) at 1 uM
Hepatocyte = assay: Intrinsic clearance in human hepatocytes at 1 uM by LC-MS/MS analysis; format: ADME, cell-based
[21] = target: Serine/threonine-protein kinase mTOR (Homo sapiens) (UniProt P42345); assay: Inhibition of mTOR (unknown origin) at 1 uM
[22] = target: Dual specificity tyrosine-phosphorylation-regulated kinase 4 (Homo sapiens) (UniProt Q9NR20); assay: Inhibition of DYRK4 (unknown origin) at 1 uM
[23] = target: Tyrosine-protein kinase TXK (Homo sapiens) (UniProt P42681); assay: Inhibition of TXK (unknown origin) at 1 uM
[24] = target: Serine/threonine-protein kinase TBK1 (Homo sapiens) (UniProt Q9UHD2); assay: Inhibition of TBK1 (unknown origin) at 1 uM
[25] = target: Activated CDC42 kinase 1 (Homo sapiens) (UniProt Q07912); assay: Inhibition of TNK2 (unknown origin) at 1 uM
[26] = target: Casein kinase I isoform delta (Homo sapiens) (UniProt P48730); assay: Inhibition of CK1 delta (unknown origin) at 1 uM
[27] = target: Serine/threonine-protein kinase 33 (Homo sapiens) (UniProt Q9BYT3); assay: Inhibition of STK33 (unknown origin) at 1 uM
[28] = target: Receptor-interacting serine/threonine-protein kinase 2 (Homo sapiens) (UniProt O43353); assay: Inhibition of RIPK2 (unknown origin) at 1 uM
Cynomolgus monkey = assay: Clearance in cynomolgus monkey at 1 mg/kg, iv by LC-MS/MS analysis; format: ADME, organism-based, Macaca fascicularis; conditions: in vivo
[29] = target: Activin receptor type-2B (Homo sapiens) (UniProt Q13705); assay: Inhibition of ACVR2B (unknown origin) at 1 uM
Chain of Activin receptor type-2B (Homo sapiens) (Q13705 whole entry): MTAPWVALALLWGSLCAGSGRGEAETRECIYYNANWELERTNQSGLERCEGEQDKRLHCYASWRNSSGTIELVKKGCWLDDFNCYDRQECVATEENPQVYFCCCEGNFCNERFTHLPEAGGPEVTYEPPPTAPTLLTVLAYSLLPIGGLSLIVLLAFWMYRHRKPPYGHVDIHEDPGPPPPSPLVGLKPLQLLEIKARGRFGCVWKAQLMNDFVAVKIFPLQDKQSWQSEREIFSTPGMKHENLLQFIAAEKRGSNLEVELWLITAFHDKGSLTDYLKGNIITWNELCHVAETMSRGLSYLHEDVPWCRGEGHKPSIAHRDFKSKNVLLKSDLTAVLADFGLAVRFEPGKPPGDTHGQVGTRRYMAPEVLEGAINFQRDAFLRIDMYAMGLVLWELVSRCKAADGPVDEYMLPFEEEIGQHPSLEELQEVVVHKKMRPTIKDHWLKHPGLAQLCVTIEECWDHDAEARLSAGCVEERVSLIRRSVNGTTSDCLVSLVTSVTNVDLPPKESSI

[30] = target: Ephrin type-A receptor 1 (Homo sapiens) (UniProt P21709); assay: Inhibition of EphA1 (unknown origin) at 1 uM
Salmonella typhimurium = assay: Genotoxicity in Salmonella typhimurium TA100 by Ames test in absence of S9 fraction; format: toxicity, organism-based; conditions: salmonella enterica subsp. enterica serovar typhimurium
[31] = target: Phosphorylase b kinase gamma catalytic chain, skeletal muscle/heart isoform (Homo sapiens) (UniProt Q16816); assay: Inhibition of PhK gamma1 (unknown origin) at 1 uM
[32] = target: CDK9/cyclin T1 (Homo sapiens) (UniProt O60563+P50750); assay: Inhibition of CDK9/cyclinT1 (unknown origin) at 1 uM; format: protein-complex assay
[33] = target: Phosphatidylinositol 4,5-bisphosphate 3-kinase catalytic subunit gamma isoform (Homo sapiens) (UniProt P48736); assay: Inhibition of PI3K-G (unknown origin) at 1 uM
Chain of Phosphatidylinositol 4,5-bisphosphate 3-kinase catalytic subunit gamma isoform (Homo sapiens) (P48736 whole entry, looked up, canonical isoform): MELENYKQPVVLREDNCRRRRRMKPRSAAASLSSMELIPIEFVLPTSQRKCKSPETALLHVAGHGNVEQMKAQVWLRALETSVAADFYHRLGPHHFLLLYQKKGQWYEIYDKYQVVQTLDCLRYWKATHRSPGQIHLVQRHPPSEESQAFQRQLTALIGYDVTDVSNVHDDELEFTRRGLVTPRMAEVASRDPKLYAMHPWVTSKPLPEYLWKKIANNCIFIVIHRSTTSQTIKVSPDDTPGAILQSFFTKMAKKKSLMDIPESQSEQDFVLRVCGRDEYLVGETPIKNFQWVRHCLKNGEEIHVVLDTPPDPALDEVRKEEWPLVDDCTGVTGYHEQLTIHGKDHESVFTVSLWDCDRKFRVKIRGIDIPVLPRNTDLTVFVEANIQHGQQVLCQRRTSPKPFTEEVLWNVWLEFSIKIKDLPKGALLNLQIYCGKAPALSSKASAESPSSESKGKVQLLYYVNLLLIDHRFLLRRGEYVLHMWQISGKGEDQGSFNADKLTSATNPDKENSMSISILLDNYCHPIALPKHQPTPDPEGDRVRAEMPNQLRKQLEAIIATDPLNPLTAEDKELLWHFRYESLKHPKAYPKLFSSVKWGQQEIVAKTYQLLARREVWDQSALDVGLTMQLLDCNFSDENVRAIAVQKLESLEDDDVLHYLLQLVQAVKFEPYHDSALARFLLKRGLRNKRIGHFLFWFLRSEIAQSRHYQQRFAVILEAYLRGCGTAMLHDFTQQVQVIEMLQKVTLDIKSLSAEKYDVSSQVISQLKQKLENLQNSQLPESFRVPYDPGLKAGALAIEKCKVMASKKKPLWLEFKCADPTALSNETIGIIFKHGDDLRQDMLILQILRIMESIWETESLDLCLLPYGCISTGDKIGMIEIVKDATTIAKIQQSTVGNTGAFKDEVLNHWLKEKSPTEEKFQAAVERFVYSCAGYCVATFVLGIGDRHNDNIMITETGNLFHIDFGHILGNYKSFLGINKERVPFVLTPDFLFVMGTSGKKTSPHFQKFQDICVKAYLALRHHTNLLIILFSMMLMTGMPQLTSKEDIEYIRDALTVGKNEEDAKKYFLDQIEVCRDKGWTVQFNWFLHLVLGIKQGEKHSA

[34] = target: Activin receptor type-1B (Homo sapiens) (UniProt P36896); assay: Inhibition of ACVR1B (unknown origin) at 1 uM
Chain of Activin receptor type-1B (Homo sapiens) (P36896 whole entry, canonical isoform): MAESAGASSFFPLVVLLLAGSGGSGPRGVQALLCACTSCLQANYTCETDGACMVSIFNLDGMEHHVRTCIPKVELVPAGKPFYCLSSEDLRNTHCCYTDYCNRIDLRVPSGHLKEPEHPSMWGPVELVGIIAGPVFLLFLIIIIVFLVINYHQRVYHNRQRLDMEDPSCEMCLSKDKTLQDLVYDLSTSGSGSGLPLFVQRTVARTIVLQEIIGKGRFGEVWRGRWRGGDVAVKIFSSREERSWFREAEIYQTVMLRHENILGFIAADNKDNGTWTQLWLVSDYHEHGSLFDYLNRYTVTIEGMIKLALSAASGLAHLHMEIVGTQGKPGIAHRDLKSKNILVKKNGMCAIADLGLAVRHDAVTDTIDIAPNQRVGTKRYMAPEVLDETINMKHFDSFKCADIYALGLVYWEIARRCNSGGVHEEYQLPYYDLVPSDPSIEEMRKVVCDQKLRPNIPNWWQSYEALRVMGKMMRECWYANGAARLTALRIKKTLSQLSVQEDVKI

[35] = target: Casein kinase I isoform gamma-2 (Homo sapiens) (UniProt P78368); assay: Inhibition of CK1 gamma2 (unknown origin) at 1 uM
[36] = target: Protein kinase C beta type (Homo sapiens) (UniProt P05771); assay: Inhibition of PKC beta1 (unknown origin) at 1 uM
[37] = target: Calcium/calmodulin-dependent protein kinase type II subunit beta (Homo sapiens) (UniProt Q13554); assay: Inhibition of CaMK2 beta (unknown origin) at 1 uM
[38] = target: Tyrosine-protein kinase ABL1 (Homo sapiens) (UniProt P00519); assay: Inhibition of Abl (unknown origin) at 1 uM
[39] = target: Myosin light chain kinase (Homo sapiens) (UniProt Q32MK0); assay: Inhibition of MYLK3 (unknown origin) at 1 uM
Chain of Myosin light chain kinase (Homo sapiens) (Q32MK0 whole entry): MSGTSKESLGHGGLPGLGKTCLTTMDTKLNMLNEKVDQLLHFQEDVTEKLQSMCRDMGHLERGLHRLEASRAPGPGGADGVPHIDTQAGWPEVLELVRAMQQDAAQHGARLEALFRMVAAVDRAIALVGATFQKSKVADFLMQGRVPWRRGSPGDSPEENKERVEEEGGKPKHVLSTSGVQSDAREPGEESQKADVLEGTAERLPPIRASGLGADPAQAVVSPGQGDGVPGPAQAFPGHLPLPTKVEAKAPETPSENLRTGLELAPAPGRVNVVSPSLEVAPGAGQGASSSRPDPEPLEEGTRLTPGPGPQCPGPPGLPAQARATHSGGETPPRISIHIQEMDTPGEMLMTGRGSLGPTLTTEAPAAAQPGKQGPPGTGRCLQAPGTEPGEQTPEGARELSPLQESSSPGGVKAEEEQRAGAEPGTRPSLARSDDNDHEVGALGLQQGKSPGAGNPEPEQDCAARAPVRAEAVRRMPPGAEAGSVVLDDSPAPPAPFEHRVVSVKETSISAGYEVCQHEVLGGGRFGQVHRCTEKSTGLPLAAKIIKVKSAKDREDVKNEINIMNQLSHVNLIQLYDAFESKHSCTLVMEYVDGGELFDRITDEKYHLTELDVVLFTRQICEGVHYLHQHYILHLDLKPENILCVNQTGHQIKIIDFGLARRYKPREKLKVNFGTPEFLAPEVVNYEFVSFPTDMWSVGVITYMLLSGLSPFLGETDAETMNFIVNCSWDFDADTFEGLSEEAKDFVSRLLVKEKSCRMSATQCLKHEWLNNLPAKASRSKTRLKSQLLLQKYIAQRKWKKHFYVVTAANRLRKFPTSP

[40] = target: Mitogen-activated protein kinase 12 (Homo sapiens) (UniProt P53778); assay: Inhibition of p38 gamma (unknown origin) at 1 uM
[41] = target: Platelet-derived growth factor receptor beta (Homo sapiens) (UniProt P09619); assay: Inhibition of PDGFR_beta (unknown origin) at 1 uM

## Cc1c(-c2cc(Nc3cc4n(n3)CCN(C)C4)c(=O)[nH]n2)ccc(F)c1NC(=O)c1cc2ccccc2s1
[1]
  inhibition: 0%
[2]
  inhibition: 7.6%
[3]
  pEC50: 8.22
[4]
  inhibition: 17.8%
[5]
  inhibition: 3%
[6]
  inhibition: -5.5%
[7]
  inhibition: 5.3%
[8]
  inhibition: 4%
[9]
  inhibition: 0.8%
[10]
  inhibition: -3.9%
Rattus norvegicus
  clearance: 5 mL/min/kg
[11]
  inhibition: 7.3%
[12]
  inhibition: -0.3%
[13]
  inhibition: 13.7%
[14]
  inhibition: -8%
[15]
  inhibition: 1.9%
[16]
  inhibition: -2%
[17]
  inhibition: 6.9%
[18]
  inhibition: 0.7%
[19]
  bioavailability: 26%
[20]
  inhibition: 3%
Hepatocyte
  CLH: < 6 mL/min/kg
[21]
  inhibition: 1.1%
[22]
  inhibition: -1.1%
[23]
  inhibition: -4.7%
[24]
  inhibition: 7.5%
[25]
  inhibition: 15.9%
[26]
  inhibition: 4.7%
[27]
  inhibition: 8.3%
[28]
  inhibition: -0.4%
Cynomolgus monkey
  clearance: 4 mL/min/kg
[29]
  inhibition: 4.5%
[30]
  inhibition: 2.2%
Salmonella typhimurium
  Activity: Non-toxic
[31]
  inhibition: -1.2%
[32]
  inhibition: 1%
[33]
  inhibition: 2.5%
[34]
  inhibition: -3.9%
[35]
  inhibition: 1.9%
[36]
  inhibition: 0.2%
[37]
  inhibition: -2.2%
[38]
  inhibition: 11.3%
[39]
  inhibition: 3%
[40]
  inhibition: 6.5%
[41]
  inhibition: 8%
